Measured values: PubChem BioAssay AID504867 (The Scripps Research Institute Molecular Screening Center, 2011)

Molecular target: Sphingosine 1-phosphate receptor 5 (Homo sapiens) (UniProt Q9H228)
Experiment: S1P5 receptor agonists, human, late-stage follow-up, counter-screen for S1P4 agonist project, cell-based, fluorescence, set 2 (AID 504867)
Conditions: S1P5 agonist cell assay, fluorescence read-out

Sphingosine 1-phosphate receptor 5 (Homo sapiens), sequence (Q9H228 whole entry, looked up): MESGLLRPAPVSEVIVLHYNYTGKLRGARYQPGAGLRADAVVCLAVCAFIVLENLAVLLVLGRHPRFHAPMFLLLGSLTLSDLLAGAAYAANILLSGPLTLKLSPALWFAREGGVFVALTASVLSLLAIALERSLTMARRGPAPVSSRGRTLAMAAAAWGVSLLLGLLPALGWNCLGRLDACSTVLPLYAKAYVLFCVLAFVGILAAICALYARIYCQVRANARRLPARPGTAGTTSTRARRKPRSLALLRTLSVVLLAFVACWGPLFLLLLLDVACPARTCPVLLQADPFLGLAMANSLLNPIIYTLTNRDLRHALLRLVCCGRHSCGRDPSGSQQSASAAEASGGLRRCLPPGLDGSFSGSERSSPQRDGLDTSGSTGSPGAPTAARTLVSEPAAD

COCCN=C1S/C(=C\c2cc(C)n(-c3ccc(F)cc3F)c2C)C(=O)N1C
EC50: 2100 nM
